{
  "source": "patent US8975234B2",
  "about": "“Anti-bacterial infection, inflammation, and leukemia composition and use thereof” (priority 2011, dated 2015)",
  "key": {"MRSA 18631": {"test_system": "MRSA 18631", "assay": "Minimum inhibitory concentration (broth microdilution) and FIC index", "assay_type": "cell-based, Staphylococcus aureus", "details": "Staphylococcus aureus, MRSA, read-out: Minimum inhibitory concentration", "protocol": "A serial of twofold dilution of the tested antibiotics (oxacillin, erythromycin, ampicillin, kanamycin, levofoxacin, vancomycin and doxycycline) was perform by Broth microdilution method to a final concentration of 2-512 μg/mL. The bacterial overnight culture was collected and re-suspended in the Muller-Hilton (M-H) broth. An aliquot of cell suspension (OD600=0.1) was prepared. The bacterial suspensions were plated in 96-well plate and incubated with test antibiotics at 37° C. in a 5% CO2 incubator (Table 1 to Table 4).\nThe […], […] and antagonism between two drugs was evaluated by the following formula:\n[formula] The criteria of fractional inhibitory concentration index: […]"}, "bacteria": {"test_system": "bacteria", "assay": "Transmission electron microscopy of treated bacteria", "assay_type": "cell-based", "details": "40 μg/mL; cultured for 10 minutes; compared with control group", "protocol": "Before observed by TEM, the bacteria were cultured overnight on plate, collected and suspended in either 10 mL MHB or 10 mL MHB containing 40 μg/mL Tellimagrandin II. The bacterial solution were diluted to an optical density at 600 nm (OD600) of 0.1, and cultured for 10 minutes or 24 hours. Then, the cells were centrifuged at 10,000 rpm/min and suspended in the fixing fluid, the fixed time can not exceed 24 hours. The sample for TEM was sent to departments of Laboratory Medicine and Clinical Research, Kaohsiung Medical University Hospital (Kaohsiung, Taiwan, ROC)."}, "[1]": {"test_system": "Staphylococcus aureus biofilm formation", "assay": "Biofilm formation", "assay_type": "cell-based", "details": "40 μg/mL Tellimagrandin II", "protocol": "Bacteria was grown overnight (16˜18 hours) on agar plate. Then, collected and re-suspended in 0.45% sterile PBS and diluted in sterile PBS to final optical density at 600 nm (OD600) of 0.1. Polystyrene 96-well microtitre plates were filled with 150 μL of culture medium and 20 μL of bacterial solution per well. The cultures were allowed to stand at 37° C. for 18 hours. After the incubation period, cultures were removed, and microtitre plate wells were gently washed three times with 300 μL of sterile PBS to remove loosely associated bacteria, then dried at 60° C. oven for 1 hour. Samples were stained by the addition of the 2% dye solution (150 μL) to each well above the initial inoculation level and incubated for 15 minutes. The plate was then washed in fresh water. The intensity of staining was measured after the addition of 95% alcohol (150 μL) to each dry well. The samples were incubated at room temperature for 30 min, after which the OD517 values were measured on a plate reader.\nOptical density cut-off value (ODc)=average OD of negative control+3× standard deviation (SD) of negative control (The interpretation of biofilm production was done according to the criteria of Srdjan et al. (APMIS 115: 891-9, 2007). MRSA 17199 were used as control strain."}, "[2]": {"test_system": "Heme oxygenase-1 (HO-1) in RAW264.7 cells", "assay": "Western blot analysis of Heme oxygenase-1 (HO-1)", "assay_type": "cell-based, mouse", "details": "25 or 50 μM with LPS, 24 hours", "protocol": "The murine macrophage RAW264.7 cells were plated in 6 cm cell dishes at a seeding density of 5×10^6 cells/mL and incubated overnight. After overnight incubation, cells were treated with different concentrations of Tellimagrandin II (10, 25 and 50 μM) and LPS and incubated for 24 hours. Cells were washed twice with PBS, scraped and lysed on ice in RIPA buffer, and proteins were obtained. Heme oxygenase-1 expression was analyzed by Western blotting of the whole cell lysates. […] In FIG. 12, the first bar represents the control group, the second bar represents the test group with LPS only and the third, the fourth and fifth bars represent the test groups with 10, 25 and 50 […] Tellimagrandin II (N=3, Mean±SD)."}, "[3]": {"test_system": "human erythromyeloblastoid leukemia K-562 cell", "assay": "Cell viability WST-1 assay", "assay_type": "cell-based", "protocol": "Quantitative cell viability assessed using WST-1 assay. WST-1 is a reagent which produces a highly water soluble formazan upon metabolically active cells, allowing a direct colorimetric measurement of cell viability.\nThe K-562 cells were plated in a 96-well culture plate at a seeding density of 6,000 cells/well (100 μL) and incubated at 37° C. with 5% CO2 for 16˜18 hours. Cells were treated with 20 μL Tellimagrandin II to make the final concentrations of 0, 20, 40, 60 and 80 μM, and incubated at 37° C. with 5% CO2 for 24 and 48 hours. Cells without Tellimagrandin II treatment used as a control. Added 12 μL of WST-1 reagent (10:1) to each well of the plate and mixed well, then incubated at 37° C. in a 5% CO2 incubator for 2 hours. After incubation, the absorbance at 450 nm (test wavelength) and 630 nm (reference wavelength) were measured. Data was calculated by subtracting the 630 nm background absorbance from the 450 nm measurement."}, "K-562 cells": {"test_system": "K-562 cells", "assay": "Apoptosis detection test (TUNEL)", "assay_type": "cell-based, human", "details": "30 μM, 48 hours", "protocol": "TUNEL test was used to detect any DNA fragmentation to determine if cell enters apoptosis process.\nA total of 10 mL cell solution at the concentration of 1×10^6K-562 cells per mL was cultured with 10 cm cell culture dishes in an incubator supplied with 5% CO2 at 37° C. for 30 minutes so that cells could adapt to the environment. Tellimagrandin II solutions of different concentrations were added by order so that the final concentrations are 0, 10, 20, 30, 40 and 50 μM respectively. The solution was placed in incubator with 5% CO2 at 37° C. for 48 hours before being centrifuged at 3,500 rpm at 4° C. for 5 minutes. After removing the supernatant, the cells were rinsed by PBS once. A total of 1 mL 1% Trioxane (diluted from 10% Trioxane solution with PBS) was added and the solution was left to react at room temperature for 30 minutes to one hour. Then, the solution was centrifuged at 3,500 rpm at 4° C. for 5 minutes. After removing the supernatant, 70% ethanol was added and the solution was placed at −20° C. for 16-18 hours for cell fixation.\nAfter cell fixation, the solution was centrifuged at 400 rpm at 4° C. for 10 minutes before removing the supernatant. […] Finally, 1 mL PBS was used to resuspend the cells before BD FACS can was used to detect the fluorescent signal and the quantitative results are in FIG. 15. […]"}},
  "data": [
    {"smiles": "O=C(OC1O[C@@H]2COC(=O)c3cc(O)c(O)c(O)c3-c3c(cc(O)c(O)c3O)C(=O)O[C@H]2[C@H](OC(=O)c2cc(O)c(O)c(O)c2)[C@H]1OC(=O)c1cc(O)c(O)c(O)c1)c1cc(O)c(O)c(O)c1", "note": "(stereo partly drawn) [Tellimagrandin II]", "values": [
      {"measurement": "MIC", "setting": "MRSA 18631", "value": 128, "unit": "µg/mL"},
      {"measurement": "phenotype of bacteria in electron microscopy", "setting": "bacteria", "value": "unsmooth tooth surfaces"},
      {"measurement": "OD (average OD value of the strain − ODc)", "setting": "[1]; ODc 0.167", "value": 0.039},
      {"measurement": "Average OD value", "setting": "[1]; biofilm staining of strain", "value": 0.206},
      {"measurement": "Absorbance 1", "setting": "[1]; biofilm staining of strain, replicate 1", "value": 0.153},
      {"measurement": "Absorbance 2", "setting": "[1]; biofilm staining of strain, replicate 2", "value": 0.259},
      {"measurement": "Absorbance 3", "setting": "[1]; biofilm staining of strain, replicate 3", "value": 0.167},
      {"measurement": "Absorbance 4", "setting": "[1]; biofilm staining of strain, replicate 4", "value": 0.246},
      {"measurement": "Heme oxygenase-1 expression", "setting": "[2]", "value": "significant increases"},
      {"measurement": "IC50", "setting": "[3]; K562, 24 hr", "value": 57, "unit": "µM"},
      {"measurement": "IC50", "setting": "[3]; K562, 48 hr", "value": 48.1, "unit": "µM"},
      {"measurement": "DNA fragmentation, TUNEL fluorescent signal", "setting": "K-562 cells", "value": "fluorescent signals were detected"}
    ]}
  ]
}
